Laboratory results taken from patent US6376429B1, “Benzoylcyclohexanediones, process for their preparation and their use as herbicides and plant growth regulators” (Hoechst Schering AgrEvo GmbH, priority 1998, dated 2002).

Test system: Sinapis arvensis
Assay: Weed action preemergence
Format: in vivo
Details: dose of 1 kg of active substance or less per hectare, visual assessment after 3 to 4 weeks vs untreated controls
Source text: Seeds of mono- and dicotyledonous weed plants are put into sandy loam soil in cardboard pots and covered with soil. The compounds according to the invention in the form of wettable powders or emulsion concentrates are then applied to the surface of the covering soil as an aqueous suspension or emulsion with a water application rate of 600 to 800 l/ha after conversion in a dose of 1 kg of active substance or less per hectare after conversion. After the treatment, the pots are placed in a greenhouse and kept under good growth conditions for the weeds. The visual assessment of the plants or emergence damage is carried out after the emergence of the test plants after a test period of 3 to 4 weeks in comparison with untreated controls. In this case, for example, the compounds of Example Nos. 5, 33 and 19 show an at least 80% action against Stellaria media, Lolium multiflorum and Amaranthus retroflexus. The compounds of Example Nos. 2 and 8 show an at least 90% action against Amaranthus retroflexus, Stellaria media and Setaria viridis. The compounds of Example Nos. 2 and 18 show a 100% action against Amaranthus retroflexus and Sinapis arvensis.

`CS(=O)(=O)c1ccc(C(=O)C2C(=O)CCCC2=O)c(Cl)c1COc1ccccc1` [Example 2, 2-(2-chloro-4-methylsulfonyl-3-phenoxymethylbenzoyl)cyclohexane-1,3-dione] was tested. Which “action against Sinapis arvensis” value did it give?
The value was 100%.
